Measured values from patent EP4647061A1, “COMPOSITION CONTAINING RETINOL AND SYNERGIST AND USE THEREOF” (Guangzhou Jiyan Cosmetics Technology Co., Ltd., priority 2024, dated 2025).

Assays:
Type in all cases: cell-based
[1] = system: COLI (type I collagen); assay: Transcription of type I collagen (COL I) by qRT-PCR in UVA-stimulated fibroblast model; details: for PCR Transcription of Type I Collagen (COL I) Up-regulation Rate Compared with NC Group: UVA 30 J/cm^2, (sample - NC)/NC x 100%; for PCR Transcription of Type I Collagen (COL I) Mean Value: UVA 30 J/cm^2, mRNA by 2^-ΔΔCT normalised to BC = 1 (NC 0.43), dosing: TGF-β1 100 ng/mL, Pro-xylane 0.5000%, tetrapeptide-1 0.00109%, encapsulated retinol 0.00313%, gum 0.00222%, combinations at the same concentrations, 1440 min
Experimental: (§1) Testing method: based on UVA-stimulated fibroblast model, transcription of type I and type III collagens was tested using qRT-PCR method, and specific steps were as follows: • 1) Cell inoculation: after resuscitation of fibroblasts, when a plating rate reached about 60%, cells were inoculated in a 6-well plate, and incubated overnight in an incubator (37 °C, 5% CO2). • 2) Liquid formulation: according to test schemes (see TABLE 1 and TABLE 2), test substance working solutions were formulated respectively according to mass ratios. TABLE 1 COL I Detection Scheme
(§2) 3) Dosing: according to the test schemes in TABLE 1 and TABLE 2, when the plating rate of the cells in the 6-well plate reached about 30%-50%, dosing was performed for the groups respectively, with each group in triplicate. The blank control group and the negative control group were added with 2 mL of a culture solution per well, the positive control group was added with 2 mL of a TGF-β1-containing culture solution per well, and sample group was added with 2mL of a test sample-containing culture solution at corresponding concentration per well. After the dosing was completed, the 6-well plate continued to be cultured in the CO2 incubator (37 °C, 5% CO2) for 24 h.
(§3) 4) UVA stimulation: according to test groups, except the blank control group, other groups were all subjected to UVA irradiation, with an irradiation dosage of 30 J/cm^2. After the irradiation was finished, culture was continued in the CO2 incubator (37 °C, 5% CO2) for 24 h.
(§4) 5) Cell collection: after incubation was ended, an original solution was sucked out and discarded, PBS cleaning was performed twice, and each well was added with 1 mL of RNAiso Plus, to pipet and lyse the cells, after which samples were collected.
(§5) 6) Detection of gene expression: RNA was extracted and subjected to reverse transcription to cDNA to undergo fluorescence quantitative PCR detection, and result was calculated by a 2^-△△CT method.
(§6) 7) Calculation of up-regulation rate: Up-regulation rate (%) = (Sample group−Negative control group)/(Negative control group) × 100% [formula]
(§7) 8) Data analysis: statistical analysis was performed using t-test method, and normalization processing was performed on amplification factors of mRNA in BC group, where all statistical analysis was double-tailed. Compared with the blank group, significance is expressed by ^#, p<0.05 is expressed by ^#, p<0.01 is expressed by ^##; compared with the negative blank group, significance is expressed by*, p<0.05 is expressed by *, p<0.01 is expressed by **.

[2] = system: COL III (type III collagen); assay: Transcription of type III collagen (COL III) by qRT-PCR in UVA-stimulated fibroblast model; details: for PCR Transcription of Type III Collagen (COL III) Up-regulation Rate Compared with NC Group: UVA 30 J/cm^2, (sample - NC)/NC x 100%; for PCR Transcription of Type III Collagen (COL III) Mean Value: UVA 30 J/cm^2, mRNA by 2^-ΔΔCT normalised to BC = 1 (NC 0.67), dosing: TGF-β1 100 ng/mL, Pro-xylane 0.5000%, tetrapeptide-1 0.00109%, encapsulated retinol 0.00313%, combination at the same concentrations, 1440 min
Experimental: as §1, §2, §3, §4, §5, §6, §7

[3] = system: CRABP2 cellular retinoic acid binding protein 2; assay: Transcription of CRABP2 by qRT-PCR in UVA-stimulated fibroblast model
Experimental: Testing method: based on UVA-stimulated fibroblast model, transcription of CRABP2 was tested using qRT-PCR method, and specific steps were as follows: • 1) Cell inoculation: after resuscitation of cells, when a plating rate reached about 60%, the cells were inoculated in a 6-well plate, and incubated overnight in an incubator (37 °C, 5% CO2). • 2) Liquid formulation: according to a test scheme (see TABLE 5), test substance working solutions were formulated respectively according to mass ratios. TABLE 5 CRABP2 Detection Scheme
as §2, with “According” for “according”, “scheme” for “schemes”, “5,” for “1 and TABLE 2,”, “2 mL” for “2mL”, “h. […]” for “h.”
6) Detection of gene expression: RNA was extracted and subjected to reverse transcription to cDNA to undergo fluorescence quantitative PCR detection, and result was calculated by a 2^-△△CT method. […]

PCR Transcription of Type I Collagen (COL I) Mean Value [1] | PCR Transcription of Type III Collagen (COL III) Mean Value [2] | Transcription of Cellular Retinoic Acid Binding Protein 2 (CRABP2) Up-regulation Rate Compared with NC Group ([3]; UVA 30 J/cm^2, (sample - NC)/NC x 100%) | Transcription of Cellular Retinoic Acid Binding Protein 2 (CRABP2) Mean Value ([3]; UVA 30 J/cm^2, mRNA by 2^-ΔΔCT normalised to BC = 1 (NC 0.48), dosing: TGF-β1 100 ng/mL, gum 0.00222%, encapsulated retinol 0.00313%, tetrapeptide-1 0.00109%, combinations at the same concentrations, 1440 min) | Compound | PCR Transcription of Type I Collagen (COL I) Up-regulation Rate Compared with NC Group [1] | PCR Transcription of Type III Collagen (COL III) Up-regulation Rate Compared with NC Group [2]
1.01 | 0.88 | – | – | CC(O)C[C@@H]1OC[C@@H](O)[C@H](O)[C@H]1O (stereo partly shown) [Comparative Example 1, Pro-xylane, reference compound] | 134.88% | 31.34%
0.54 | 0.71 | 20.83% | 0.58 | Tetrapeptide-1 [Comparative Example 2] | 25.58% | 5.97%
